Source: patent US20260055108A1, “TRIAZINE COMPOUNDS AND USES THEREOF” (HUTCHMED LIMITED, priority 2022, published 2026)

Key:
[1] = target: Recombinant human Menin protein (2-610) / MLL polypeptide binding (Homo sapiens (Human), UniProt O00255); assay: Menin and MLL protein binding at a molecular level (fluorescence polarization method); conditions: inhibition of Menin / MLL polypeptide binding
Source text: Example 3: Determination of the Activity of the Compounds of the Present Invention on Menin and MLL Protein Binding at a Molecular Level (Fluorescence Polarization Method)
1. Reagents, Materials and Instruments:
• Recombinant human Menin protein (2-610): ChemPartner, CP2021020801; • MLL polypeptide (6-FAM-Ahx-SG-40): GL Biochem, 865700; • Trizma® hydrochloride buffer solution (Tris): Sigma, T2194-1 L; • NaCl: Invitrogen, AM9760G; • TCEP: Sigma, 646547; • DMSO: Sigma, D4540; • 384-well plate: Corning, 4514; • Envision: PerkinElmer.
2. Preparation of Reaction Solutions
• 1) Buffer solution: 20 mL of Tris and 4 mL of NaCl were added respectively to 376 mL of ddH2O, with pH adjusted to 7.5, and TCEP was added before testing with a dilution ratio of 1:500. • 2) 5× test compounds: the test compound was subjected to gradient dilution with the buffer solution to 5-fold the reaction concentration, so that the final concentrations of the compound were 1.000, 0.333, 0.111, 0.037, 0.012, 0.004, 0.001 and 0.0005 μM, respectively. • 3) 2.5× Menin protein reaction solution: the Menin protein was diluted to 5 nM with the buffer solution. • 4) 2.5×MLL polypeptide reaction solution: the MLL polypeptide was diluted to 5 nM with the buffer solution.
1) Binding Reaction (20 μL System)
4 μL of 5× test compound was added to each reaction well of the 384-well plate, and the corresponding volume of 10% DMSO was added to the control wells. Except the control wells, 8 μL of Menin protein reaction solution was added to each well. The reaction solution was incubated at room temperature for 30 minutes, and then 8 μL of MLL polypeptide reaction solution was added to each well. The final concentrations of DMSO in the test compound wells and control wells were all 2%. The 384-well plate was sealed and incubated at room temperature for 30 minutes in the dark.
Three control groups were set up: • a blank control group only containing a buffer solution; • a negative control group only containing MLL polypeptide reaction solution; and • a positive control group containing Menin protein reaction solution and MLL polypeptide reaction solution.
The vertical polarization S value and the horizontal polarization P value (excitation wavelength was 480 nm, and emission wavelength was 535 nm) were measured with Envision.
Corrected S is the S value of the negative control group—the S value of the blank control group
Corrected P is the P value of the negative control group—the P value of the blank control group
(§1) • calculated by using software XL-Fit™ (version 5.3) supplied by ID Business Solutions (Guildford, UK), which is an additional software to Microsoft Excel.

[2] = test system: MV-4-11 cells (human acute myelogenous leukemia cell line carrying MLL-AF4 mutation); assay: Cell proliferation assay, MV-4-11 (CellTiter-Glo); type: cell-based; conditions: Homo sapiens, MV4-11, 72 h, MV-4-11 cells, 3 days treatment, CellTiter-Glo; read-out: GI50
Procedure: Example 4 Cell Proliferation Assay
MV-4-11 (ATCC, CRL-9591), a human acute myelogenous leukemia cell line carrying MLL-AF4 mutation. Cells were cultured in an IMDM medium containing 10% heat-inactivated fetal bovine serum (HIFBS) and supplemented with 50 μM β-mercaptoethanol.
2. Reagents, Materials and Instruments:
• IMDM culture solution: GIBCO, 12440-053; • HIFBS: GIBCO, 10100-147; • β-mercaptoethanol: Sigma, M3148; • CellTiter-Glo® 2.0 assay kit (CTG): Promega, G9243; • DMSO: Sigma, D4540; • 96-well cell culture plate: Corning, 3903; • Envision: PerkinElmer.
MV-4-11 cells were resuspended in a medium, added to a 96-well plate at a density of 3000 cells/well with a volume of 100 μL/well, and cultured in a cell incubator at 5% CO2 and 37° C. for 4 hours. The test compound subjected to gradient dilution with the medium was added to a cell culture plate, and the final concentrations of the compound were 1.100, 0.367, 0.122, 0.041, 0.014, 0.005, 0.002 and 0.001 μM, respectively. The corresponding volume of DMSO diluent was added to a blank control well, and the final concentrations of DMSO in the experimental group and control group were both 0.1%. The cell plate was placed in a cell incubator at 5% CO2 and 37° C. and cultured for 3 days.
On day 0 and day 3 of the treatment, 50 μL/well CTG reagent was added to the cell plate and shaken at room temperature in the dark for 10 min, and then the chemiluminescence value of each well was measured with Envision.
[formula] • wherein: • luminescence valuetest sample: the chemiluminescence value of a cell well treated with the test compound for 3 days. • luminescence valueday 0: the chemiluminescence value of a cell well at day 0. • luminescence valuecell well: the chemiluminescence value of a cell well not treated with the compound for 3 days.
as §1

Recombinant human Menin protein (2-610) / MLL polypeptide binding, sequence (O00255 2-610): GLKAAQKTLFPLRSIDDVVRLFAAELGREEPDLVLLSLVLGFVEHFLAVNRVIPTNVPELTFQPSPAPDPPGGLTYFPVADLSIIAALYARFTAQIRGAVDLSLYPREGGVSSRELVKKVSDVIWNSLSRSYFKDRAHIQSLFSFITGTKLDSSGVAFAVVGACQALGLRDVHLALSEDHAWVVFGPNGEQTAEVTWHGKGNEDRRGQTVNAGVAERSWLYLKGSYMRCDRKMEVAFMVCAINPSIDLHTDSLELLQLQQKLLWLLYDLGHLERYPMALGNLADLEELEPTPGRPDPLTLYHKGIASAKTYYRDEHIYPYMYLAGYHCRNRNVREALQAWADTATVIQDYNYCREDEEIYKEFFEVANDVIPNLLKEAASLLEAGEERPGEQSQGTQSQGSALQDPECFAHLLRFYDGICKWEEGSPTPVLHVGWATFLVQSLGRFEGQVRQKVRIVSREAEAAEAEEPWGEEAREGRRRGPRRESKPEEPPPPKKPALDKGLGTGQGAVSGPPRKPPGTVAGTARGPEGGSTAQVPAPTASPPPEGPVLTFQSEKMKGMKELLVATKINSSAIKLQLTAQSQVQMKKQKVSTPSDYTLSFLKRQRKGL

| IC50 [1] | GI50 [2] | SMILES |
| --- | --- | --- |
| 153 nM | 442 nM | CCN(C(=O)c1cc(F)ccc1Oc1nncnc1N1CC(C2(N(Cc3ccc4[nH]c(C#N)cc4c3C)C(C)C)CC2)C1)C(C)C [Compound 141] |
| 292 nM | 276 nM | Cc1c(CN2CCC3(CC2)CN(c2ncnnc2Oc2ccc(F)cc2)C3)ccc2c1cc(C#N)n2CCO [Compound 155] |
| 5.3 nM | 221 nM | CCN(C(=O)c1cc(F)ccc1Oc1nncnc1N1CC2(CCN(Cc3ccc4c(cc(C#N)n4CC(O)C(N)=O)c3C)CC2)C1)C(C)C (stereo not drawn) [Compound 148] |
| 13.9 nM | 30 nM | CCN(C(=O)c1cc(F)ccc1Oc1nncnc1N1CC2(CCN(Cc3ccc4c(c3)cc(C#N)n4CCO)CC2)C1)C(C)C [Compound 162] |
| 178 nM | 199 nM | CCN(C(=O)c1cc(F)ccc1Oc1nncnc1N1CC(C2CCCN2Cc2ccc3[nH]c(C#N)cc3c2C)C1)C(C)C (stereo not drawn) [Compound 129] |
| 5.2 nM | 8 nM | CCN(C(=O)c1cc(F)ccc1Oc1nncnc1N1CC2(CCN(CC3CCN(c4cnc(OC)c(OC)c4)CC3)CC2)C1)C(C)C [Compound 111] |
| 124 nM | 257 nM | CCN(C(=O)c1cc(F)ccc1Oc1nncnc1N1CCC(C2(N(C)Cc3ccc4[nH]c(C#N)cc4c3C)CC2)C1)C(C)C (stereo not drawn) [Compound 142] |
| > 200 nM | 76 nM | CCN(C(=O)c1cc(F)ccc1Oc1nncnc1N1CC2(CCN(C(=O)C3CCN(c4ccccn4)CC3)CC2)C1)C(C)C [Compound 172, N-ethyl-5-fluoro-N-isopropyl-2-((5-(7-(1-(pyridin-2-yl)piperidine-4-carbonyl)-2,7-diazaspiro[3.5]nonan-2-yl)-1,2,4-triazin-6-yl)oxy)benzamide] |
| 141 nM | 181 nM | CCN(C(=O)c1cc(F)ccc1Oc1nncnc1N1CC2(CCN(CC3CCN(C4COC4)CC3)CC2)C1)C(C)C [Compound 137, N-ethyl-5-fluoro-N-isopropyl-2-((5-(7-((1-(oxetan-3-yl)piperidin-4-yl)methyl)-2,7-diazaspiro[3.5]nonan-2-yl)-1,2,4-triazin-6-yl)oxy)benzamide] |
| 3.9 nM | 10 nM | C=CC(=O)Nc1ccc(N2CC3(CCC(CN4CCC5(CC4)CN(c4ncnnc4Oc4ccc(F)cc4C(=O)N(CC)C(C)C)C5)CC3)C2)cc1 [Compound 180] |
| 87.7 nM | 54 nM | CCN(C(=O)c1cc(F)ccc1Oc1nnc(C)nc1N1CC2(CCN(Cc3ccc4c(cc(C#N)n4CCO)c3C)CC2)C1)C(C)C [Compound 160] |
| 6.1 nM | 26 nM | [2H]C(c1ccc2oc(C#N)cc2c1)N1CCC2(CC1)CN(c1ncnnc1Oc1ccc(F)cc1C(=O)N(CC)C(C)C)C2 (stereo not drawn) [Compound 176] |

The remaining lines, values behind:

| SMILES | IC50 [1] | GI50 [2] |
| --- | --- | --- |
| CCN(C(=O)c1cc(F)ccc1Oc1nncnc1N1CC2(CCN(Cc3cnc4c(c3)OC[C@H](c3ccc(OC)nc3)O4)CC2)C1)C(C)C [Compound 73] | > 1000 nM | 1270 nM |
| CCN(C(=O)c1cc(F)ccc1Oc1nncnc1N1CC2(CCN(CC3CCN(C(=O)C4CC(C)(C)C4)CC3)CC2)C1)C(C)C [Compound 4] | 3.2 nM | 8 nM |
| CCN(C(=O)c1cc(F)ccc1Oc1nncnc1N1CCC2(CN(CC3CCN(c4cc(OC)c(OC)nn4)CC3)C2)C1)C(C)C [Compound 94] | 0.8 nM | 2 nM |
| CCN(C(=O)c1cc(F)ccc1Oc1nncnc1N1CC2(CCN(CC3CCN(c4ccn5ncnc5c4)CC3)CC2)C1)C(C)C [Compound 55, 2-((5-(7-((1-([1,2,4]triazolo[1,5-a]pyridin-7-yl)piperidin-4-yl)methyl)-2,7-diazaspiro[3.5]nonan-2-yl)-1,2,4-triazin-6-yl)oxy)-N-ethyl-5-fluoro-N-isopropylbenizamide] | 3.5 nM | 4 nM |
| CCN(C(=O)c1cc(F)ccc1Oc1nncnc1N1CC2(CCN(CC3CCN(C(=O)C(C)O)CC3)CC2)C1)C(C)C (stereo not drawn) [Compound 10] | 41.7 nM | 187 nM |
| CCN(C(=O)c1cc(F)ccc1Oc1nncnc1N1CC2(CCN(CC3CCN(C(=O)c4ccccn4)CC3)CC2)C1)C(C)C [Compound 15] | 41.8 nM | 44 nM |
| CCN(C(=O)c1cc(F)ccc1Oc1nncnc1N1CC2(CCN(Cc3cnc(OC)c(Cl)c3C)CC2)C1)C(C)C [Compound 60] | 574 nM | 693 nM |
| CCN(C(=O)c1cc(F)ccc1Oc1nncnc1N1CC2(CCN(CC3CCN(S(C)(=O)=O)CC3)CC2)C1)C(C)C [Compound 22] | 112 nM | 87 nM |
| CCN(C(=O)c1cc(F)ccc1Oc1nncnc1N1CC2(CCN(CC3CCN(c4cnccn4)CC3)CC2)C1)C(C)C [Compound 40] | 11.4 nM | 23 nM |
| CCN(C(=O)c1cc(F)ccc1Oc1nncnc1N1CC2(CCN(CC3CCN(C(=O)C4(C(F)(F)F)CC4)CC3)CC2)C1)C(C)C [Compound 2] | 30 nM | 39 nM |
| COc1cc(N2CCC(CN3CCC4(CC3)CN(c3ncnnc3Oc3ccc(Cl)cc3)C4)CC2)nnc1OC [Compound 103] | 114 nM | 107 nM |
| CCN(C(=O)c1cc(F)ccc1Oc1nncnc1N1CC2(CCN(CC3CCN(c4cc(C(F)(F)F)cnn4)CC3)CC2)C1)C(C)C [Compound 45] | 3.9 nM | 7 nM |
| CCN(C(=O)c1cc(F)ccc1Oc1nncnc1N1CC2(CCN(Cc3ccc4oc(C)nc4c3)CC2)C1)C(C)C [Compound 67] | 512 nM | 309 nM |
| CCN(C(=O)c1cc(F)ccc1Oc1nncnc1N1CC2(CCN(CC3CCN(c4ncccn4)CC3)CC2)C1)C(C)C [Compound 78] | 28.8 nM | 20 nM |
| CCOc1cc(N2CCC(CN3CCC4(CC3)CN(c3ncnnc3Oc3ccc(F)cc3C(=O)N(CC)C(C)C)C4)CC2)nnc1OCC [Compound 95] | 3.2 nM | 9 nM |
| CCN(C(=O)c1cc(F)ccc1Oc1nncnc1N1CC2(CCN(CC3CCN(c4ccc(C#N)cc4)CC3)CC2)C1)C(C)C [Compound 51] | 6.5 nM | 9 nM |
| C=CC(=O)N1CCC(CN2CCC3(CC2)CN(c2ncnnc2Oc2ccc(F)cc2C(=O)N(CC)C(C)C)C3)CC1 [Compound 20, 2-((5-(7-((1-acryloylpiperidin-4-yl)methyl)-2,7-diazaspiro[3.5]nonan-2-yl)-1,2,4-triazin-6-yl)oxy)-N-ethyl-5-fluoro-N-isopropylbenzamide] | 98.7 nM | 58 nM |
| CCN(C(=O)c1cc(F)ccc1Oc1nncnc1N1CC2(CCN(CC3CCN(C(=O)C4(OC)CC4)CC3)CC2)C1)C(C)C [Compound 8] | 34.6 nM | 86 nM |
| CCN(C(=O)c1cc(F)ccc1Oc1nncnc1N1CC2(CCN(CC3CCN(C(=O)NC)CC3)CC2)C1)C(C)C [Compound 27] | 5.3 nM | 13 nM |
| CCN(C(=O)c1cc(F)ccc1Oc1nncnc1N1CC2(CCN(Cc3ccc4nc(OC)ncc4c3)CC2)C1)C(C)C [Compound 70] | > 1000 nM | 2150 nM |
| CCN(C(=O)c1cc(F)ccc1Oc1nncnc1N1CC2(CCN(CC3CCN(C(=O)NCc4ccccc4)CC3)CC2)C1)C(C)C [Compound 34] | 8.1 nM | 24 nM |
